Assay results taken from patent US8580829B2 (Boehringer Ingelheim International GmbH, priority 2010, dated 2013).
Like-named read-outs stand apart in the source and are kept apart here.

Assays:
[1] = target: T1, recombinant human FLAP protein (Homo sapiens, UniProt P20292); assay: FLAP binding assay (Scintillation Proximity Assay, displacement of [125I]L-691,831); details: recombinant human FLAP membranes, [125I]L-691,831 probe; read-out: FLAP SPA IC50
T1 construct: made in house; host or cells: Sf9 insect cells (100,000 x g membrane fraction)
T1 sequence (P20292 1-161): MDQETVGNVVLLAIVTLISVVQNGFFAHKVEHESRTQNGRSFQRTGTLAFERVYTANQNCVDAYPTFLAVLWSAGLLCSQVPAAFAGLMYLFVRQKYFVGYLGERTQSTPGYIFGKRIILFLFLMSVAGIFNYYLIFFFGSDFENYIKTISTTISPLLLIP
Procedure, shortened: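 Membranes came from Sf9 insect cells expressing recombinant human FLAP, collected as the 100,000×g pellet in Tris pH 7.5/MgCl2/EDTA buffer. 5 μg membrane protein was coupled to WGA SPA beads for 1 h.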

[2] = test system: synthesis of LTB4 in human whole blood; assay: human whole blood LTB4 production inhibition assay; assay type: cell-based; details: heparinized human whole blood, calcimycin 20 μM, read-out: hWB LTB4 IC50
Procedure, shortened: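 LTB4 in plasma was quantified by HTRF immunoassay. Before that, compound-treated heparinized whole blood (15 min, 37 °C) received 20 μM final calcimycin for a further 30 min at 37 °C, followed by centrifugation at 1500×g.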

| Structure (SMILES) | IC50 [1] | IC50 ([2]; Homo sapiens) | IC50 [2] |
| --- | --- | --- | --- |
| Nc1ncc(-c2ccc(C3(c4noc(-c5cnn(C6CCS(=O)(=O)C6)c5)n4)CCC3)cc2)cn1 (stereo not drawn) [Example 226, 5-[4-(1-{5-[1-(1,1-Dioxo-tetrahydro-1lambda6-thiophen-3-yl)-1H-pyrazol-4-yl]-[1,2,4]oxadiazol-3-yl}-cyclobutyl)-phenyl]-pyrimidin-2-ylamine] | 1.2 nM | 45 nM |  |
| COC(=O)[C@H]1CN(c2cnc(-c3nc(C4(c5ccc(-c6cnc(N)nc6)cc5)CCC4)no3)cn2)CCN1 [Example 125, (R)-5′-(3-{1-[4-(2-Amino-pyrimidin-5-yl)-phenyl]-cyclobutyl}-1,2,4-oxadiazol-5-yl)-3,4,5,6-tetrahydro-2H-1,2′-bipyrazinyl-3-carboxylic acid methyl ester] | 5 nM |  | > 5000 nM |
| Cn1cc(-c2nc(C3(c4ccc(-c5ccc(C6CC6)nc5)cc4)CCC3)no2)cn1 [Example 248, 2-Cyclopropyl-5-(4-{1-[5-(1-methyl-1H-pyrazol-4-yl)-[1,2,4]oxadiazol-3-yl]-cyclobutyl}-phenyl)-pyridine] | 730 nM | > 5000 nM |  |
| Cn1cc(-c2nc(C3(c4ccc(-c5cnc6c(c5)CCN6)cc4)CCC3)no2)cn1 [Example 272, 5-(4-{1-[5-(1-Methyl-1H-pyrazol-4-yl)-[1,2,4]oxadiazol-3-yl]-cyclobutyl}-phenyl)-2,3-dihydro-1H-pyrrolo[2,3-b]pyridine] | 3.8 nM | 79 nM |  |
| CN1CCN(C(=O)Cn2cc(-c3nc(C4(c5ccc(-c6cnc(N)nc6)cc5)CCC4)no3)cn2)CC1 [Example 219, 2-[4-(3-{1-[4-(2-Amino-pyrimidin-5-yl)-phenyl]-cyclobutyl}-[1,2,4]oxadiazol-5-yl)-pyrazol-1-yl]-1-(4-methyl-piperazin-1-yl)-ethanone] | 3.1 nM | 140 nM |  |
| Nc1ncc(-c2ccc(C3(c4noc(-c5csc(C6CCNCC6)n5)n4)CCC3)cc2)cn1 [Example 269] | 5.6 nM |  | 320 nM |
| CS(=O)(=O)N1CCN(c2cnc(-c3nc(C4(c5ccc(-c6cnc(N)nc6)cc5)CCC4)no3)cn2)CC1 [Example 202, 5-(4-{1-[5-(4-Methanesulfonyl-3,4,5,6-tetrahydro-2H-1,2′-bipyrazinyl-5′-yl)-1,2,4-oxadiazol-3-yl]-cyclobutyl}-phenyl)-pyrimidin-2-ylamine] | 2.6 nM | 70 nM |  |
| CS(=O)(=O)C1CCN(c2cnc(-c3nc(C4(c5ccc(-c6cnc(N)nc6)cc5)CCC4)no3)cn2)C1 (stereo not drawn) [Example 203, 5-[4-(1-{5-[5-(3-Methanesulfonyl-pyrrolidin-1-yl)-pyrazin-2-yl]-1,2,4-oxadiazol-3-yl}-cyclobutyl)-phenyl]-pyrimidin-2-ylamine] | 1.9 nM | 130 nM |  |
| CS(=O)(=O)c1ccc(-c2nc(C3(c4ccc(-c5cnc(N)nc5)cc4)CCC3)no2)cc1 [Example 36, 5-(4-{1-[5-(4-Methanesulfonyl-phenyl)-1,2,4-oxadiazol-3-yl]-cyclobutyl}-phenyl)-pyrimidin-2-ylamine] | 4.3 nM | 260 nM |  |
| CN(C)C(=O)c1nc(C2(c3ccc(-c4cnc(N)nc4)cc3)CCC2)no1 [Example 14, 3-{1-[4-(2-Amino-pyrimidin-5-yl)-phenyl]-cyclobutyl}-1,2,4-oxadiazole-5-carboxylic acid dimethylamide] | 57 nM | > 5000 nM |  |
| Nc1ncc(-c2ccc(C3(c4noc(-c5ccc(S(N)(=O)=O)cc5)n4)CCC3)cc2)cn1 [Example 38, 4-(3-{1-[4-(2-Amino-pyrimidin-5-yl)-phenyl]-cyclobutyl}-1,2,4-oxadiazol-5-yl)-benzenesulfonamide] | 2.4 nM | > 5000 nM |  |
| Nc1ncc(-c2ccc(C3(c4noc(-c5ccc(N6CCNCC6)cc5)n4)CCC3)cc2)cn1 [Example 104] | 1.3 nM | 99 nM |  |
| CN(CCO)C(=O)c1ccc(-c2nc(C3(c4ccc(-c5cnc(N)nc5)cc4)CCC3)no2)cn1 [Example 78, 5-(3-{1-[4-(2-Amino-pyrimidin-5-yl)-phenyl]-cyclobutyl}-1,2,4-oxadiazol-5-yl)-pyridine-2-carboxylic acid (2-hydroxy-ethyl)-methyl-amide] | 8.8 nM | 160 nM |  |

More lines, main results first:

| IC50 [1] | IC50 ([2]; Homo sapiens) | Structure (SMILES) | IC50 [2] |
| --- | --- | --- | --- |
| 1.5 nM | 67 nM | CC(O)CNc1cnc(-c2nc(C3(c4ccc(-c5cnc(N)nc5)cc4)CCC3)no2)cn1 (stereo not drawn) [Example 200, 1-[5-(3-{1-[4-(2-Amino-pyrimidin-5-yl)-phenyl]-cyclobutyl}-1,2,4-oxadiazol-5-yl)-pyrazin-2-ylamino]-propan-2-ol] |  |
| 6.7 nM | 180 nM | CN(C)C(=O)C(C)(C)n1cc(-c2nc(C3(c4ccc(-c5cnc(N)nc5)cc4)CCC3)no2)cn1 [Example 128, 2-[4-(3-{1-[4-(2-amino-pyrimidin-5-yl)-phenyl]-cyclobutyl}-1,2,4-oxadiazol-5-yl)-pyrazol-1-yl]-N,N-dimethyl-isobutyramide] |  |
| 3.7 nM | 340 nM | Nc1cc(-c2nc(C3(c4ccc(-c5cnc(N)nc5)cc4)CCC3)no2)ccn1 [Example 37, 5-(4-{1-[5-(2-Amino-pyridin-4-yl)-1,2,4-oxadiazol-3-yl]-cyclobutyl}-phenyl)-pyrimidin-2-ylamine] |  |
| 5.1 nM | 660 nM | Cc1ncccc1-c1nc(C2(c3ccc(-c4cnc(N)nc4)cc3)CCC2)no1 [Example 167, 5-(4-{1-[5-(2-Methyl-pyridin-3-yl)-1,2,4-oxadiazol-3-yl]-cyclobutyl}-phenyl)-pyrimidin-2-ylamine] |  |
| 2.3 nM | 110 nM | COc1cc(-c2nc(C3(c4ccc(-c5cnc(N)nc5)cc4)CCC3)no2)ccc1O [Example 98, 4-(3-{1-[4-(2-Amino-pyrimidin-5-yl)-phenyl]-cyclobutyl}-1,2,4-oxadiazol-5-yl)-2-methoxy-phenol] |  |
| 6 nM | 410 nM | CC(=O)NCCn1cc(-c2nc(C3(c4ccc(-c5cnc(N)nc5)cc4)CCC3)no2)cn1 [Example 229, N-{2-[4-(3-{1-[4-(2-Amino-pyrimidin-5-yl)-phenyl]-cyclobutyl}-[1,2,4]oxadiazol-5-yl)-pyrazol-1-yl]-ethyl}-acetamide] |  |
| 6.3 nM | 160 nM | COCCn1cnc(-c2nc(C3(c4ccc(-c5cnc(N)nc5)cc4)CCC3)no2)c1 [Example 88, 5-[4-(1-{5-[1-(2-Methoxy-ethyl)-1H-imidazol-4-yl]-1,2,4-oxadiazol-3-yl}-cyclobutyl)-phenyl]-pyrimidin-2-ylamine] |  |
| 5.9 nM | 97 nM | CCn1cccc(-c2nc(C3(c4ccc(-c5cnc(N)nc5)cc4)CCC3)no2)c1=O [Example 65, 3-(3-{1-[4-(2-Amino-pyrimidin-5-yl)-phenyl]-cyclobutyl}-1,2,4-oxadiazol-5-yl)-1-ethyl-1H-pyridin-2-one] |  |
| 100 nM | 2200 nM | Cn1cc(-c2nc(C3(c4ccc(-c5cnc(N)nc5)cc4)CC3)no2)cn1 [Example 257, 5-(4-{1-[5-(1-Methyl-1H-pyrazol-4-yl)-[1,2,4]oxadiazol-3-yl]-cyclopropyl}-phenyl)-pyrimidin-2-ylamine] |  |
| 4.3 nM | 780 nM | Nc1ncc(-c2ccc(C3(c4noc(-c5cccc(F)c5)n4)CCC3)cc2)cn1 [Example 52, 5-(4-{1-[5-(3-Fluoro-phenyl)-1,2,4-oxadiazol-3-yl]-cyclobutyl}-phenyl)-pyrimidin-2-ylamine] |  |
| 3.6 nM | 600 nM | Cc1ccc(-c2nc(C3(c4ccc(-c5cnc(N)nc5)cc4)CCC3)no2)cc1 [Example 35, 5-{4-[1-(5p-Tolyl-1,2,4-oxadiazol-3-yl)-cyclobutyl]-phenyl}-pyrimidin-2-ylamine] |  |
| 3.6 nM | 47 nM | CN(C)CCn1cc(-c2nc(C3(c4ccc(-c5cnc(N)nc5)cc4)CCC3)no2)cn1 [Example 240, 5-[4-(1-{5-[1-(2-Dimethylamino-ethyl)-1H-pyrazol-4-yl]-[1,2,4]oxadiazol-3-yl}-cyclobutyl)-phenyl]-pyrimidin-2-ylamine] |  |
| 1.5 nM | 66 nM | CN(C)C(=O)n1cc(-c2nc(C3(c4ccc(-c5cnc(N)nc5)cc4)CCC3)no2)cn1 [Example 136, 4-(3-{1-[4-(2-Amino-pyrimidin-5-yl)-phenyl]-cyclobutyl}-1,2,4-oxadiazol-5-yl)-pyrazole-1-carboxylic acid dimethylamide] |  |
| 13 nM | > 5000 nM | Nc1ncc(-c2ccc(C3(c4noc(-c5nc[nH]n5)n4)CCC3)cc2)cn1 [Example 156, 5-(4-{1-[5-(2H-1,2,4-Triazol-3-yl)-1,2,4-oxadiazol-3-yl]-cyclobutyl}-phenyl)-pyrimidin-2-ylamine] |  |
| 1.7 nM | > 5000 nM | Cc1ccc(-c2nc(C3(c4ccc(-c5cnc(N)nc5)cc4)CCC3)no2)c(=O)[nH]1 [Example 192, 3-(3-{1-[4-(2-Amino-pyrimidin-5-yl)-phenyl]-cyclobutyl}-1,2,4-oxadiazol-5-yl)-6-methyl-1H-pyridin-2-one] |  |
| 6.2 nM | 55 nM | Cn1cnc(-c2nc(C3(c4ccc(-c5cnc(N)cn5)cc4)CCC3)no2)c1 [Example 265] |  |
| 1.9 nM | 63 nM | Nc1ccc(-c2nc(C3(c4ccc(-c5cnc(N)nc5)cc4)CCC3)no2)cn1 [Example 20, 5-(4-{1-[5-(6-Amino-pyridin-3-yl)-1,2,4-oxadiazol-3-yl]-cyclobutyl}-phenyl)-pyrimidin-2-ylamine] |  |
